These results are taken from patent US5079260A, “Method for treating inflammation and compounds and compositions suitable for use therein” (Nova Pharmaceutical Corporation, priority 1990, dated 1992).

Molecules are shown by their SMILES.

One test has as its system Ear Edema Caused By Tetradecanoylphorbol Acetate. Nature of the test: Inhibition of Ear Edema Caused by Tetradecanoylphorbol Acetate (II), Table 7. It is filed as in vivo, CF-1 Mice. As to conditions: i.p., 10 mg/kg; 3 h. As for the experimental part: Inhibition of Ear Edema Caused by Tetradecanoylphorbol Acetate (II)
CF-1 Mice, 25-30 g body weight, six animals per group were used. Test compounds were administered intraperitoneally or topically as follows. For intraperitoneal administration, the test compound was dissolved in dimethyl sulfoxide or 0.5% methylcellulose and 100 microliters was injected 30 minutes prior to irritant (100 mg/kg, i.p.). […] A solution of the irritant, tetradecanoylphorbol acetate, 200 μg/mL, was added to the surface of the ear, 5 μL to the upper surface and 5 μL to the lower surface. After three hours, the thickness of the ear was measured to 0.01 mm by a micrometer with loose drag, positioned at the lateral-most edge of the mid-point of the pinna. Data were calculated as the inhibition of increased ear thickness compared to control animals receiving only the irritant.
`Cc1cccc2c1C(COC(=O)N[C@@H](CC(C)C)C(=O)O)c1ccccc1-2` (stereo partly drawn) [NPC 15638, N-{[9H-(1-Methylfluoren-9-yl)methoxy]carbonyl}-L-leucine]: the “% Inhibition Intraperitoneal” value was 23%.
Still for that read-out and setting: the figure for `Cc1ccc2c(c1)C(COC(=O)N[C@@H](CC(C)C)C(=O)O)c1cc(C)ccc1-2` [NPC 15669, N-{[9H-(2,7-Dimethylfluoren-9-yl)methoxy]-carbonyl}-L-leucine] is 43%.
Still for that read-out and setting: the figure for `Cc1ccc2c(c1)C(CCC(=O)N[C@@H](CC(C)C)C(=O)O)c1ccccc1-2` (stereo partly drawn) [NPC 15671, N-{9H-[3-(2-Methylfluoren-9-yl)propionyl]}-L-leucine] is 41%.

The test is the same for the next values; noted with them: i.p., 30 mg/kg; 3 h.
`Cc1cccc2c1C(COC(=O)N[C@@H](CC(C)C)C(=O)O)c1ccccc1-2` (stereo partly drawn) [NPC 15638, N-{[9H-(1-Methylfluoren-9-yl)methoxy]carbonyl}-L-leucine]: the “% Inhibition Intraperitoneal” value came to 12%.
In the case of `Cc1ccc2c(c1)C(COC(=O)N[C@@H](CC(C)C)C(=O)O)c1cc(C)ccc1-2` [NPC 15669, N-{[9H-(2,7-Dimethylfluoren-9-yl)methoxy]-carbonyl}-L-leucine], the “% Inhibition Intraperitoneal” value is listed as 27%.
On the same count and under the same terms, for `Cc1ccc2c(c1)C(CCC(=O)N[C@@H](CC(C)C)C(=O)O)c1ccccc1-2` (stereo partly drawn) [NPC 15671, N-{9H-[3-(2-Methylfluoren-9-yl)propionyl]}-L-leucine] the value was 31%.

Still in this test, the particulars now being: i.p., 100 mg/kg; 3 h.
For the compound `Cc1cccc2c1C(COC(=O)N[C@@H](CC(C)C)C(=O)O)c1ccccc1-2` (stereo partly drawn) [NPC 15638, N-{[9H-(1-Methylfluoren-9-yl)methoxy]carbonyl}-L-leucine], the “% Inhibition Intraperitoneal” value is on record as 62%.
Consider `Cc1ccc2c(c1)C(COC(=O)N[C@@H](CC(C)C)C(=O)O)c1cc(C)ccc1-2` [NPC 15669, N-{[9H-(2,7-Dimethylfluoren-9-yl)methoxy]-carbonyl}-L-leucine], for which the “% Inhibition Intraperitoneal” value is 133%.
Regarding `Cc1ccc2c(c1)C(CCC(=O)N[C@@H](CC(C)C)C(=O)O)c1ccccc1-2` (stereo partly drawn) [NPC 15671, N-{9H-[3-(2-Methylfluoren-9-yl)propionyl]}-L-leucine], the “% Inhibition Intraperitoneal” value is given as 66%.

For the next test, the system named is Ear Edema Caused by Arachidonic Acid. As to the kind of experiment: Inhibition of Ear Edema Caused by Arachidonic Acid (II), Table 8. It is filed as in vivo, CF-1 mice. The following applies: i.p., 10 mg/kg; sixty minutes. As for the experimental part: Inhibition of Ear Edema Caused by Arachidonic Acid (II)
CF-1 mice, 25-30 g body weight, six animals per group, were used. The requisite amount of the test compound was dissolved is dimethyl sulfoxide or 0.5% methylcellulose and 100 μL of the solution was injected intraperitoneally 30 minutes prior to the administration of 100 mg/kg of arachidponic acid. A solution of this irritant, b 100 mg/mL in ethanol, was applied to the surface of the ear, 5 μL to the upper surface and 5 μL to the lower surface. After sixty minutes, the thickness of the ear was measured to 0.01 mm by a micrometer with the loose drag positioned at the lateral-most edge of the mid-point of the pinna. Data were calculated as the percent inhibityion by the test compound of increased ear thickness compared to control animals recieveing only the irritant.
`Cc1ccc2c(c1)C(COC(=O)N[C@@H](CC(C)C)C(=O)O)c1cc(C)ccc1-2` [NPC 15669, N-{[9H-(2,7-Dimethylfluoren-9-yl)methoxy]-carbonyl}-L-leucine]: the “% Inhibition Intraperitoneal” value was 12%.
In the case of `Cc1ccc2c(c1)C(CCC(=O)N[C@@H](CC(C)C)C(=O)O)c1ccccc1-2` (stereo partly drawn) [NPC 15671, N-{9H-[3-(2-Methylfluoren-9-yl)propionyl]}-L-leucine], the “% Inhibition Intraperitoneal” value worked out at 40%.

The test is the same for the next values; noted with them: i.p., 30 mg/kg; sixty minutes.
Take `Cc1ccc2c(c1)C(COC(=O)N[C@@H](CC(C)C)C(=O)O)c1cc(C)ccc1-2` [NPC 15669, N-{[9H-(2,7-Dimethylfluoren-9-yl)methoxy]-carbonyl}-L-leucine]: the “% Inhibition Intraperitoneal” value is 22%.
The same measure, in the same setting: the figure for `Cc1ccc2c(c1)C(CCC(=O)N[C@@H](CC(C)C)C(=O)O)c1ccccc1-2` (stereo partly drawn) [NPC 15671, N-{9H-[3-(2-Methylfluoren-9-yl)propionyl]}-L-leucine] is 19%.

The same test, now with this note: i.p., 100 mg/kg; sixty minutes.
With `Cc1cccc2c1C(COC(=O)N[C@@H](CC(C)C)C(=O)O)c1ccccc1-2` (stereo partly drawn) [NPC 15638, N-{[9H-(1-Methylfluoren-9-yl)methoxy]carbonyl}-L-leucine], the “% Inhibition Intraperitoneal” value is 65%.
Same read-out and setting: the figure for `Cc1ccc2c(c1)C(COC(=O)N[C@@H](CC(C)C)C(=O)O)c1cc(C)ccc1-2` [NPC 15669, N-{[9H-(2,7-Dimethylfluoren-9-yl)methoxy]-carbonyl}-L-leucine] is 60%; for `Cc1ccc2c(c1)C(CCC(=O)N[C@@H](CC(C)C)C(=O)O)c1ccccc1-2` (stereo partly drawn) [NPC 15671, N-{9H-[3-(2-Methylfluoren-9-yl)propionyl]}-L-leucine] it is 56%.

A further test deals with Ear Edema Caused by Xylene. As to the kind of experiment: Inhibition of Ear Edema Caused by Xylene (II), Table 9. It is filed as in vivo, CF-1 mice. As to conditions: i.p., 10 mg/kg; 2 h. The protocol:
Inhibition of Ear Edema Caused by Xylene (II)
CF-1 mice, 25-30 g body weight, six animals per group, were used. The requisite amount of the test compound was dissolved is dimethyl sulfoxide or 0.5% methylcellulose and 100 μL of the solution was injected intraperitoneally 30 minutes prior to the administration the irritant. The irritant xylene was applied to the surface of the ear, 20 μL to the upper surface and 20 μL to the lower surface, After two hours, the thickness of the ear was measured to 0.01 mm by a micrometer with the loose drag positioned at the lateral-most edge of the mid-point of the pinna. Data were calculated as the percent inhibition by the test compound of increased ear thickness compared to control animals receiving only the irritant.
Regarding `Cc1cccc2c1C(COC(=O)N[C@@H](CC(C)C)C(=O)O)c1ccccc1-2` (stereo partly drawn) [NPC 15638, N-{[9H-(1-Methylfluoren-9-yl)methoxy]carbonyl}-L-leucine], the % Inhibition (commonly the drop in the measured response relative to a control, in per cent) was found to be 37%.
Same read-out and setting: the figure for `Cc1ccc2c(c1)C(COC(=O)N[C@@H](CC(C)C)C(=O)O)c1cc(C)ccc1-2` [NPC 15669, N-{[9H-(2,7-Dimethylfluoren-9-yl)methoxy]-carbonyl}-L-leucine] is 12%.
As for `Cc1ccc2c(c1)C(CCC(=O)N[C@@H](CC(C)C)C(=O)O)c1ccccc1-2` (stereo partly drawn) [NPC 15671, N-{9H-[3-(2-Methylfluoren-9-yl)propionyl]}-L-leucine], the “% Inhibition” value was 6%.

The same test, now with this note: i.p., 30 mg/kg; 2 h.
On to `Cc1cccc2c1C(COC(=O)N[C@@H](CC(C)C)C(=O)O)c1ccccc1-2` (stereo partly drawn) [NPC 15638, N-{[9H-(1-Methylfluoren-9-yl)methoxy]carbonyl}-L-leucine], for which the “% Inhibition” value stood at 66%.
Regarding `Cc1ccc2c(c1)C(COC(=O)N[C@@H](CC(C)C)C(=O)O)c1cc(C)ccc1-2` [NPC 15669, N-{[9H-(2,7-Dimethylfluoren-9-yl)methoxy]-carbonyl}-L-leucine], the “% Inhibition” value is listed as 22%.
Still for that read-out and setting: for `Cc1ccc2c(c1)C(CCC(=O)N[C@@H](CC(C)C)C(=O)O)c1ccccc1-2` (stereo partly drawn) [NPC 15671, N-{9H-[3-(2-Methylfluoren-9-yl)propionyl]}-L-leucine] the value was 10%.

Still in this test, the particulars now being: i.p., 100 mg/kg; 2 h.
With `Cc1cccc2c1C(COC(=O)N[C@@H](CC(C)C)C(=O)O)c1ccccc1-2` (stereo partly drawn) [NPC 15638, N-{[9H-(1-Methylfluoren-9-yl)methoxy]carbonyl}-L-leucine], the “% Inhibition” value amounted to 82%.
Still for that read-out and setting: for `Cc1ccc2c(c1)C(COC(=O)N[C@@H](CC(C)C)C(=O)O)c1cc(C)ccc1-2` [NPC 15669, N-{[9H-(2,7-Dimethylfluoren-9-yl)methoxy]-carbonyl}-L-leucine] the value was 60%; for `Cc1ccc2c(c1)C(CCC(=O)N[C@@H](CC(C)C)C(=O)O)c1ccccc1-2` (stereo partly drawn) [NPC 15671, N-{9H-[3-(2-Methylfluoren-9-yl)propionyl]}-L-leucine], 18%.

Another test deals with Ear Edema Caused by Oxazolone. As to the kind of experiment: Inhibition of Ear Edema Caused by Oxazolone (II), Table 10. It is filed as in vivo, CF-1 mice. The following applies: i.p., 10 mg/kg; 24 h. As for the experimental part: Inhibition of Ear Edema Caused by Oxazolone (II)
CF-1 mice, 25-30 g body weight, five to six animals per group were used. The mice were sensitized to the irritant two weeks prior to the test by dribbling 100 μL of a 3% solution of oxazolone in acetone onto the abdominal skin of the animal. Test compounds were administered intraperitoneally as follows. […] The irritant, 3% oxazolone in acetone, was added to the surface of the ear, 5 μL added to the upper surface and 5 μL added to the lower surface. After twenty four hours, the thickness of the ear was measured to 0.01 mm by a micrometer with loose drag, positioned at the lateral-most edge of the mid-point of the pinna. Data were calculated as the inhibition of increased ear thickness compared to control animals' receiving only the irritant.
For the compound `Cc1ccc2c(c1)C(COC(=O)N[C@@H](CC(C)C)C(=O)O)c1cc(C)ccc1-2` [NPC 15669, N-{[9H-(2,7-Dimethylfluoren-9-yl)methoxy]-carbonyl}-L-leucine], the “% Inhibition Intraperitoneal” value is listed as -40%.
On the same count and under the same terms, for `Cc1ccc2c(c1)C(CCC(=O)N[C@@H](CC(C)C)C(=O)O)c1ccccc1-2` (stereo partly drawn) [NPC 15671, N-{9H-[3-(2-Methylfluoren-9-yl)propionyl]}-L-leucine] the value was 5%.

The test is the same for the next values; noted with them: i.p., 30 mg/kg; 24 h.
Take `Cc1cccc2c1C(COC(=O)N[C@@H](CC(C)C)C(=O)O)c1ccccc1-2` (stereo partly drawn) [NPC 15638, N-{[9H-(1-Methylfluoren-9-yl)methoxy]carbonyl}-L-leucine]: the “% Inhibition Intraperitoneal” value stood at 67%.
On the same count and under the same terms, the figure for `Cc1ccc2c(c1)C(COC(=O)N[C@@H](CC(C)C)C(=O)O)c1cc(C)ccc1-2` [NPC 15669, N-{[9H-(2,7-Dimethylfluoren-9-yl)methoxy]-carbonyl}-L-leucine] is 84%; for `Cc1ccc2c(c1)C(CCC(=O)N[C@@H](CC(C)C)C(=O)O)c1ccccc1-2` (stereo partly drawn) [NPC 15671, N-{9H-[3-(2-Methylfluoren-9-yl)propionyl]}-L-leucine] it is 20%.

Still in this test, the particulars now being: i.p., 100 mg/kg; 24 h.
As for `Cc1cccc2c1C(COC(=O)N[C@@H](CC(C)C)C(=O)O)c1ccccc1-2` (stereo partly drawn) [NPC 15638, N-{[9H-(1-Methylfluoren-9-yl)methoxy]carbonyl}-L-leucine], the “% Inhibition Intraperitoneal” value is 74%.
Still for that read-out and setting: for `Cc1ccc2c(c1)C(COC(=O)N[C@@H](CC(C)C)C(=O)O)c1cc(C)ccc1-2` [NPC 15669, N-{[9H-(2,7-Dimethylfluoren-9-yl)methoxy]-carbonyl}-L-leucine] the value was 84%.
The same measure, in the same setting: the figure for `Cc1ccc2c(c1)C(CCC(=O)N[C@@H](CC(C)C)C(=O)O)c1ccccc1-2` (stereo partly drawn) [NPC 15671, N-{9H-[3-(2-Methylfluoren-9-yl)propionyl]}-L-leucine] is 69%.

The next test deals with Reverse Passive Artus Reaction. As to the kind of experiment: Reverse Passive Artus Reaction (II), Table 11. It is filed as in vivo, Male CD rats. The following applies: inhibition of blueing; i.p., 100 mg/kg. The protocol: Reverse Passive Artus Reaction (II) Male CD rats weighing between 200 and 250 g were used. […] The animals were anesthetized inhalationally with isoflurane and then injected through the penile vein with 1 mL of a solution of 2.5 mg of Evan's blue dye and 5.0 mg of human serum albumin in 1 mL of saline. This treatment was followed immediately by intracutaneous injections of 0.03 mL of anti-human albumin diluted to contain 3.65 mg of antibody at 3 sites along the midline back. Anesthesia was terminated and after three hours, the animals were sacrificed. The skin was removed and the blue stained areas cut out. The skin patches were soaked overnight in stoppered tubes containing 1 mL of 1 N potassium hydroxide at 37° C. Then 9 mL of a mixture of five parts of a 0.6 N phosphoric acid and thirteen parts of acetone were added to the tubes. The tube contents were agitated and centrifuged, and the absorbance measured at 620 nm. The data were calculated as inhibition of blueing by test compound compared to control animals receiving only antigen and antibody.
For `Cc1cccc2c1C(COC(=O)N[C@@H](CC(C)C)C(=O)O)c1ccccc1-2` (stereo partly drawn) [NPC 15638, N-{[9H-(1-Methylfluoren-9-yl)methoxy]carbonyl}-L-leucine], the “% Inhibition Intraperitoneal” value was 68%.
As for `Cc1ccc2c(c1)C(COC(=O)N[C@@H](CC(C)C)C(=O)O)c1cc(C)ccc1-2` [NPC 15669, N-{[9H-(2,7-Dimethylfluoren-9-yl)methoxy]-carbonyl}-L-leucine], the “% Inhibition Intraperitoneal” value is on record as 60%.
On the same count and under the same terms, for `Cc1ccc2c(c1)C(CCC(=O)N[C@@H](CC(C)C)C(=O)O)c1ccccc1-2` (stereo partly drawn) [NPC 15671, N-{9H-[3-(2-Methylfluoren-9-yl)propionyl]}-L-leucine] the value was 13%.
